Measurements taken from US11311520B2, “Substituted dihydroimidazopyridinediones as MKNK1 and MKNK2 inhibitors” (Bayer Pharma Aktiengesellschaft, priority 2017, dated 2022).
Where a name gives a salt, the structure may show the parent alone.

The compounds below were run against human full-length MKNK1 (Homo sapiens (Human), UniProt Q9BUB5, T344D) (assay: MKNK1 kinase high ATP assay (TR-FRET)). Details: 2 mM ATP, 15 min preincubation with enzyme, GST-MKNK1 (T344D).
Type: biochemical
Method: MKNK1 Kinase High ATP Assay
MKNK1-inhibitory activity at high ATP of compounds of the present invention after their preincubation with MKNK1 was quantified employing the TR-FRET-based MKNK1 high ATP assay as described in the following paragraphs.
A recombinant fusion protein of Glutathione-S-Transferase (GST, N-terminally) and human full-length MKNK1 (amino acids 1-424 and T344D of accession number BAA 19885.1), expressed in insect cells using baculovirus expression system and purified via glutathione sepharose affinity chromatography, was purchased from Carna Biosciences (product no 02-145) and used as enzyme. As substrate for the kinase reaction the biotinylated peptide biotin-Ahx-IKKRKLTRRKSLKG (SEQ ID NO: 1) (C-terminus in amide form) was used, which can be purchased e.g. from the company Biosyntan (Berlin-Buch, Germany)
For the assay 50 nL of a 100 fold concentrated solution of the test compound in DMSO was pipetted into a black low volume 384 well microtiter plate (Greiner Bio-One, Frickenhausen, Germany), 2 μL of a solution of MKNK1 in aqueous assay buffer [50 mM HEPES pH 7.5, 5 mM MgCl2, 1.0 mM dithiothreitol, 0.005% (v/v) Nonidet-P40 (Sigma)] was added and the mixture was incubated for […] at 22° C. to allow pre-binding of the test compounds to the enzyme before the start of the kinase reaction. Then the kinase reaction was started by the addition of 3 μL of a solution of adenosine-tri-phosphate (ATP, 3.3 mM=>final conc. in the 5 μL assay volume is 2 mM) and substrate (0.1 μM=>final conc. in the 5 μL assay volume is 0.06 μM) in assay buffer and the resulting mixture was incubated for a reaction time of 30 min at 22° C. The concentration of MKNK1 was adjusted depending of the activity of the enzyme lot and was chosen appropriate to have the assay in the linear range, typical concentrations were in the range of 0.003 μg/mL. The reaction was stopped by the addition of 5 μL of a solution of TR-FRET detection reagents (5 nM streptavidine-XL665 [Cisbio Bioassays, Codolet, France] and 1 nM anti-ribosomal protein S6 (pSer236)-antibody from Invitrogen [#44921G] and 1 nM LANCE EU-W1024 labeled ProteinG [Perkin-Elmer, product no. AD0071]) in an aqueous EDTA-solution (100 mM EDTA, 0.1% (w/v) bovine serum albumin in 50 mM HEPES pH 7.5).
The resulting mixture was incubated for 1 h at 22° C. to allow the formation of complex between the phosphorylated biotinylated peptide and the detection reagents. Subsequently the amount of phosphorylated substrate was evaluated by measurement of the resonance energy transfer from the Eu-chelate to the streptavidine-XL. Therefore, the fluorescence emissions at 620 nm and 665 nm after excitation at 350 nm were measured in a TR-FRET reader, e.g. a Rubystar (BMG Labtechnologies, Offenburg, Germany) or a Viewlux (Perkin-Elmer). The ratio of the emissions at 665 nm and at […] was taken as the measure for the amount of phosphorylated substrate. The data were normalised (enzyme reaction without inhibitor=0% inhibition, all other assay components but no enzyme=100% inhibition).

Chain of human full-length MKNK1 (Q9BUB5 other isoform, or with tags, fused parts or gaps T344D): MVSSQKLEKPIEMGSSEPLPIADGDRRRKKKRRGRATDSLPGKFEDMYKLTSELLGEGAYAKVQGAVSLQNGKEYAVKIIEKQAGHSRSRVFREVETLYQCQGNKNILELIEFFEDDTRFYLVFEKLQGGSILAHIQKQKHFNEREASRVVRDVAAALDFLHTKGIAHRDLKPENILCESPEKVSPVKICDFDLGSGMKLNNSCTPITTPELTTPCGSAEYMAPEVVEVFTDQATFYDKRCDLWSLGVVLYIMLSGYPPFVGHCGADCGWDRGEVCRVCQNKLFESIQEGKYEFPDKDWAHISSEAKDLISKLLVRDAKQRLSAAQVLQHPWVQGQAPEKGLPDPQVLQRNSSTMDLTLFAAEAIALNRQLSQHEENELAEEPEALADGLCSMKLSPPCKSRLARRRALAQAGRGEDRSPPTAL

Compound | IC50 [nM]
CCCNC(=O)Nc1nccc(Nc2cc(C)c3n(c2=O)C2(CCCCC2)NC3=O)n1 [Example 23, 1-{4-[(8′-Methyl-1′,5′-dioxo-1′,5′-dihydro-2′H-spiro[cyclohexane-1,3′-imidazo[1,5-a]pyridin]-6′-yl)amino]pyrimidin-2-yl}-3-propylurea] | 337
Cc1cc(Nc2ncnc3[nH]cnc23)c(=O)n2c1C(=O)NC21CCCCC1 [Example 24, 8′-methyl-6′-(9H-purin-6-ylamino)-2′H-spiro[cyclohexane-1,3′-imidazo[1,5-a]pyridine]-1′,5′-dione] | 1.5
Cc1cc(Nc2ncnc3sc(C(=O)NCCN(C)C)cc23)c(=O)n2c1C(=O)NC21CCCCC1 [Example 25, N-[2-(Dimethylamino)ethyl]-4-[(8′-methyl-1′,5′-dioxo-1′,5′-dihydro-2′H-spiro[cyclohexane-1,3′-imidazo[1,5-a]pyridin]-6′-yl)amino]thieno[2,3-d]pyrimidine-6-carboxamide] | 1.9
Cc1cc(Nc2ncnc3sc(C(=O)N4CC(C#N)C4)cc23)c(=O)n2c1C(=O)NC21CCCCC1 [Example 26, 1-({4-[(8′-Methyl-1′,5′-dioxo-1′,5′-dihydro-2′H-spiro[cyclohexane-1,3′-imidazo[1,5-a]pyridin]-6′-yl)amino]thieno[2,3-d]pyrimidin-6-yl}carbonyl)azetidine-3-carbonitrile] | 5
Cc1cc(Nc2ncnc3sc(C(=O)N4CC(NC(=O)OC(C)(C)C)C4)cc23)c(=O)n2c1C(=O)NC21CCCCC1 [Example 27, tert-Butyl [1-({4-[(8′-methyl-1′,5′-dioxo-1′,5′-dihydro-2′H-spiro[cyclohexane-1,3′-imidazo[1,5-a]pyridin]-6′-yl)amino]thieno[2,3-d]pyrimidin-6-yl}carbonyl)azetidin-3-yl]carbamate] | 4
Cc1cc(Nc2ncnc3sc(C(=O)N4CC(N)C4)cc23)c(=O)n2c1C(=O)NC21CCCCC1 [Example 28, 6′-({6-[(3-Aminoazetidin-1-yl)carbonyl]thieno[2,3-d]pyrimidin-4-yl}amino)-8′-methyl-2′H-spiro[cyclohexane-1,3′-imidazo[1,5-a]pyridine]-1′,5′-dione] | 0.6
Cc1cc(Nc2ncnc3sc(C(=O)N4CC[C@@H](N(C)C)C4)cc23)c(=O)n2c1C(=O)NC21CCCCC1 [Example 29, 6′-[(6-{[(3R)-3-(Dimethylamino)pyrrolidin-1-yl]carbonyl}thieno[2,3-d]pyrimidin-4-yl)amino]-8′-methyl-2′H-spiro[cyclohexane-1,3′-imidazo[1,5-a]pyridine]-1′,5′-dione] | 2.9
Cc1cc(Nc2ncnc3sc(C(=O)N4CC[C@H](N(C)C)C4)cc23)c(=O)n2c1C(=O)NC21CCCCC1 [Example 30, 6′-[(6-{[(3S)-3-(Dimethylamino)pyrrolidin-1-yl]carbonyl}thieno[2,3-d]pyrimidin-4-yl)amino]-8′-methyl-2′H-spiro[cyclohexane-1,3′-imidazo[1,5-a]pyridine]-1′,5′-dione] | 3.2
Cc1cc(Nc2ncnc3c2CN(C(=O)OC(C)(C)C)C3)c(=O)n2c1C(=O)NC21CCCCC1 [Example 35, tert-Butyl 4-[(8′-methyl-1′,5′-dioxo-1′,5′-dihydro-2′H-spiro[cyclohexane-1,3′-imidazo[1,5-a]pyridin]-6′-yl)amino]-5,7-dihydro-6H-pyrrolo[3,4-d]pyrimidine-6-carboxylate] | 4.1
Cc1cc(Nc2ncnc3c2CNC3)c(=O)n2c1C(=O)NC21CCCCC1 [Example 36, 6′-(6,7-Dihydro-5H-pyrrolo[3,4-d]pyrimidin-4-ylamino)-8′-methyl-2′H-spiro[cyclohexane-1,3′-imidazo[1,5-a]pyridine]-1′,5′-dione] | 19.1
Cc1cc(Nc2ncnc3nc(CC(F)(F)F)[nH]c23)c(=O)n2c1C(=O)NC21CCCCC1 [Example 37, 8′-Methyl-6′-{[8-(2,2,2-trifluoroethyl)-7H-purin-6-yl]amino}-2′H-spiro[cyclohexane-1,3′-imidazo[1,5-a]pyridine]-1′,5′-dione] | 10.3
Cc1cc(Nc2ncnc3oc(C)c(C)c23)c(=O)n2c1C(=O)NC21CCCCC1 [Example 38, 6′-[(5,6-Dimethylfuro[2,3-d]pyrimidin-4-yl)amino]-8′-methyl-2′H-spiro[cyclohexane-1,3′-imidazo[1,5-a]pyridine]-1′,5′-dione] | 79.9
Cc1cc(Nc2ncnc(NC(=O)C3CC3)n2)c(=O)n2c1C(=O)NC2(C)C [Example 40, N-[4-[(3,3,8-Trimethyl-1,5-dioxo-1,2,3,5-tetrahydroimidazo[1,5-a]pyridin-6-yl)amino]-1,3,5-triazin-2-yl]cyclopropanecarboxamide] | 20.7
Cc1cc(Nc2ncnc3cccc(F)c23)c(=O)n2c1C(=O)NC21CCCCC1 [Example 41, 6′-[(5-Fluoroquinazolin-4-yl)amino]-8′-methyl-2′H-spiro[cyclohexane-1,3′-imidazo[1,5-a]pyridine]-1′,5′-dione] | 14
Cc1cc(Nc2ncnc3sc(C(=O)N4C[C@H]5C[C@@H]4CN5C)cc23)c(=O)n2c1C(=O)NC21CCCCC1 [Example 42, 8′-Methyl-6′-[(6-{[(1R,4R)-5-methyl-2,5-diazabicyclo[2.2.1]hept-2-yl]carbonyl}thieno[2,3-d]pyrimidin-4-yl)amino]-2′H-spiro[cyclohexane-1,3′-imidazo[1,5-a]pyridine]-1′,5′-dione] | 1.9
Cc1cc(Nc2ncnc3sc(C(=O)N4C[C@@H]5C[C@H]4CN5C)cc23)c(=O)n2c1C(=O)NC21CCCCC1 [Example 43, 8′-Methyl-6′-[(6-{[(1S,4S)-5-methyl-2,5-diazabicyclo[2.2.1]hept-2-yl]carbonyl}thieno[2,3-d]pyrimidin-4-yl)amino]-2′H-spiro[cyclohexane-1,3′-imidazo[1,5-a]pyridine]-1′,5′-dione] | 2.9
Cc1cc(Nc2ncnc3c2ncn3CCO)c(=O)n2c1C(=O)NC21CCCCC1 [Example 44, 6′-{[9-(2-Hydroxyethyl)-9H-purin-6-yl]amino}-8′-methyl-2′H-spiro[cyclohexane-1,3′-imidazo[1,5-a]pyridine]-1′,5′-dione] | 465
CCOC(=O)Cn1cnc2c(Nc3cc(C)c4n(c3=O)C3(CCCCC3)NC4=O)ncnc21 [Example 45, Ethyl {6-[(8′-methyl-1′,5′-dioxo-1′,5′-dihydro-2′H-spiro[cyclohexane-1,3′-imidazo[1,5-a]pyridin]-6′-yl)amino]-9H-purin-9-yl}acetate] | 603
Cc1cc(Nc2ncnc3ccc(Cl)cc23)c(=O)n2c1C(=O)NC21CCCCC1 [Example 46, 6′-[(6-Chloroquinazolin-4-yl)amino]-8′-methyl-2′H-spiro[cyclohexane-1,3′-imidazo[1,5-a]pyridine]-1′,5′-dione] | 4.1
Cc1cc(Nc2ncnc3c2ncn3[C@H]2O[C@@H](CO)[C@H](O)[C@H]2O)c(=O)n2c1C(=O)NC21CCCCC1 [Example 47, N-[9-(beta-L-Arabinofuranosyl)-9H-purin-6-yl]-8′-methyl-1′,5′-dioxo-1′,5′-dihydro-2′H-spiro[cyclohexane-1,3′-imidazo[1,5-a]pyridin]-6′-amine] | 47.2

Same assay, conditions: 2 mM ATP, 15 min preincubation with enzyme, GST-MKNK1 (T344D), hydrochloride

Compound | IC50 [nM]
Cc1cc(Nc2ncnc3sccc23)c(=O)n2c1C(=O)NC21CCCCC1 [Example 31, 8′-Methyl-6′-(thieno[2,3-d]pyrimidin-4-ylamino)-2′H-spiro[cyclohexane-1,3′-imidazo[1,5-a]pyridine]-1′,5′-dione hydrochloride] | 16.8
Cc1cc(Nc2ncnc3sc(C(=O)N(C)C)cc23)c(=O)n2c1C(=O)NC21CCCCC1 [Example 33, N,N-Dimethyl-4-[(8′-methyl-1′,5′-dioxo-1′,5′-dihydro-2′H-spiro[cyclohexane-1,3′-imidazo[1,5-a]pyridin]-6′-yl)amino]thieno[2,3-d]pyrimidine-6-carboxamide hydrochloride] | 70.7
Cc1cc(Nc2ncnc3[nH]ncc23)c(=O)n2c1C(=O)NC21CCCCC1 [Example 34, 8′-Methyl-6′-(1H-pyrazolo[3,4-d]pyrimidin-4-ylamino)-2′H-spiro[cyclohexane-1,3′-imidazo[1,5-a]pyridine]-1′,5′-dione hydrochloride] | 8.1
